Results taken from US9238797B2, “Method for production of pluripotent stem cell” (TAKARA BIO INC., priority 2008, dated 2016).

How the values were obtained:
Type in all cases: cell-based
[1] = tested on: human adult skin fibroblasts; experiment: iPS cell colony induction, differences between donors, Retronectin or polybrene (Example 13); conditions: virus 10-fold dilution, 25th day of culture, N=2
Experimental: Regarding gene transfer with a retrovirus vector, a pluripotent stem cell was induced using Retronectin or polybrene, targeting four kinds of human adult skin fibroblasts as in Example 12, followed by comparison.
According to the same manner as that of Example 1-(1), immobilization of Retronectin on a culture plate was carried out, provided that a non-treatment 12-well culture plate (manufactured by Becton, Dickinson and Company) was used, and each 1 mL of a Retronectin solution was added to each well.
According to the same manner as that of Example 7-(2), gene transfer was carried out (day 0 of culturing), provided that a 12-well plate for culturing a cell (manufactured by Corning) was used in gene transfer with polybrene. A virus solution was added to each well by each 1 mL by diluting 10-fold a solution obtained by mixing equal amounts of three kinds of vectors, with 10F-DMEM.
On the sixth day of culture, according to the same manner as that of Example 5-(4), the gene-introduced cell was seeded on a feeder cell, and culturing was continued.
According to the same manner as that of Example 10-(5), culturing on the feeder cell was carried out until the 25th day of culture.
In addition, the number in the Table indicates an average value of N=2.

[2] = tested on: human skin fibroblast derived from four different donors; experiment: Gene transfer efficiency, double positive cells, fibroblast of four donors, gene transfer two times (Example 12); conditions: sixth day of culture, N=2
Experimental: Gene transfer efficiencies using a plurality of retrovirus vectors with Retronectin or polybrene were further compared. Introduction of a fluorescent protein gene was carried out targeting human skin fibroblast derived from four different donors, using a method of performing gene transfer two times as in the pluripotent stem cell inducing experiment. In the present Example, the cell A indicates derived from a person, the cell B indicates derived from a person, the cell C indicates derived from a person, and the cell D indicates derived from a person (all manufactured by Lonza).
(§1) According to the same manner as that of Example 8-(1), immobilization of Retronectin on a culture plate was carried out.
According to the same manner as that of Example 8-(2), gene transfer was carried out (day 0 of culturing), provided that a group in which a virus solution was diluted 10-fold, 100-fold or 1000-fold with 10F-DMEM was set.
According to the same manner as that of Example 8-(3), a gene transfer efficiency was measured on the sixth day of culture. […] In addition, the number in the Table indicates an average value of N=2.

human skin fibroblast = experiment: Gene transfer efficiency with two retrovirus vectors, double positive cells (Example 9); conditions: 5 days after gene transfer
Experimental: as §1
According to the same manner as that of Example 8-(2), gene transfer was carried out, provided that a group in which a virus solution is diluted 10-fold or 100-fold with 10F-DMEM was set.
According to the same manner as that of Example 8-(3), a gene transfer efficiency was measured, provided that measurement with a flow cytometer was carried out 5 days after gene transfer operation.

Substance: Retronectin: fragment of fibronectin having a heparin-II binding region (registered trademark, CH-296, TAKARA BIO INC.)
- Number of iPS cell colonies ([1]; Cell A): 81.0
- Number of iPS cell colonies ([1]; Cell B): 6.5
- Number of iPS cell colonies ([1]; Cell C): 114.0
- Number of iPS cell colonies ([1]; Cell D): 44.5
- Ratio of double positive cells ([2]; Cell A, Virus 10-fold dilution): 55.9
- Ratio of double positive cells ([2]; Cell A, Virus 100-fold dilution): 61.6
- Ratio of double positive cells ([2]; Cell A, Virus 1000-fold dilution): 51.9
- Ratio of double positive cells ([2]; Cell A, Virus stock solution): 42.5
- Ratio of double positive cells ([2]; Cell B, Virus 10-fold dilution): 49.7
- Ratio of double positive cells ([2]; Cell B, Virus 100-fold dilution): 57.7
- Ratio of double positive cells ([2]; Cell B, Virus 1000-fold dilution): 48.7
- Ratio of double positive cells ([2]; Cell B, Virus stock solution): 35.9
- Ratio of double positive cells ([2]; Cell C, Virus 10-fold dilution): 54.6
- Ratio of double positive cells ([2]; Cell C, Virus 100-fold dilution): 60.2
- Ratio of double positive cells ([2]; Cell C, Virus 1000-fold dilution): 46.4
- Ratio of double positive cells ([2]; Cell C, Virus stock solution): 42.1
- Ratio of double positive cells ([2]; Cell D, Virus 10-fold dilution): 54.2
- Ratio of double positive cells ([2]; Cell D, Virus 100-fold dilution): 63.2
- Ratio of double positive cells ([2]; Cell D, Virus 1000-fold dilution): 51.0
- Ratio of double positive cells ([2]; Cell D, Virus stock solution): 38.4
- Ratio of both positive cells (human skin fibroblast; virus 10-fold dilution): 55.4
- Ratio of both positive cells (human skin fibroblast; virus 100-fold dilution): 67.6
- Ratio of both positive cells (human skin fibroblast; virus solution undiluted): 33.9
